Measurements published in paper PMC10299128, “The Parallel Structure–Activity Relationship Screening of Three Compounds Identifies the Common Agonist Pharmacophore of Pyrrolidine Bis-Cyclic Guanidine Melanocortin-3 Receptor (MC3R) Small-Molecule Ligands” (International Journal of Molecular Sciences, 2023).

Experiments:
mMC4R = mMC4R (Mus musculus, UniProt P56450); test: AlphaScreen cAMP agonist assay, HEK293 cells stably expressing mMC4R; conditions: for mMC4R percent maximal stimulatory response (compared to NDP-MSH): at 1 mM, not enough stimulation to determine EC50
mMC1R = mMC1R (Mus musculus, UniProt Q01727); test: AlphaScreen cAMP agonist assay, HEK293 cells stably expressing mMC1R; conditions: for fold decreased mMC1R agonist potency: relative to 2718.001; for mMC1R partial agonist efficacy bin: sigmoidal curve, efficacy <90% of NDP-MSH
mMC3R = mMC3R (Mus musculus, UniProt P33033); test: AlphaScreen cAMP agonist assay, HEK293 cells stably expressing mMC3R; conditions: for mMC3R percent maximal stimulatory response (compared to NDP-MSH): at 1 mM, not enough stimulation to determine EC50; for mMC3R partial agonist efficacy bin: sigmoidal curve, efficacy <90% of NDP-MSH
Description: (§1) Pyrrolidine bis-cyclic guanidine compounds were assessed for biological activity using the AlphaScreen cAMP kit with HEK293 cells stably expressing the mMC1R, mMC3R, mMC4R, or mMC5R, as previously described [37, 38, 39]. […] Compounds were assayed for agonist activity in a 7-point dose–response curve (10^−3 to 10^−9 M). […] The purified compounds were dissolved in DMSO at a stock concentration of 10^−1 M and assayed using HEK293 cells stably expressing the mouse MC1R, MC3R, MC4R, and MC5R using the AlphaScreen cAMP bioassay (PerkinElmer, Waltham, MA, USA) according to the manufacturer’s instructions and as previously described [37, 38, 39].
(§2) Briefly, cells 70−90% confluent were dislodged with Versene (Gibco, Waltham, MA, USA) at 37 °C and 10,000 cells/well were plated in a 384-well plate (Optiplate, PerkinElmer, Waltham, MA, USA) with 10 μL of freshly prepared stimulation buffer (1× HBSS, 5 mM HEPES, 0.5 mM IBMX, 0.1% BSA, pH = 7.4) with 0.5 μg of anti-cAMP acceptor beads per well. The cells were stimulated with the addition of 5 μL of stimulation buffer containing compound or forskolin (10^−4 M) and incubated in the dark at room temperature for 2 h. Following stimulation, streptavidin donor beads (0.5 μg) and biotinylated cAMP (0.62 μmol) were added to the wells in a green light environment with 10 μL of lysis buffer (5 mM HEPES, 0.3% Tween-20, 0.1% BSA, pH = 7.4) and the plates were incubated in the dark at room temperature for an additional 2 h. Plates were read on a Enspire (PerkinElmer, Waltham, MA, USA) Alpha plate reader using a pre-normalized assay protocol (set by the manufacturer).

mMC5R = mMC5R (Mus musculus, UniProt P41149); test: AlphaScreen cAMP agonist assay, HEK293 cells stably expressing mMC5R; conditions: for mMC5R partial agonist efficacy bin: sigmoidal curve, efficacy <90% of NDP-MSH
Description: as §1, §2

[1] = at 1 mM, not enough stimulation to determine EC50

Sequence of mMC3R (P33033 whole entry): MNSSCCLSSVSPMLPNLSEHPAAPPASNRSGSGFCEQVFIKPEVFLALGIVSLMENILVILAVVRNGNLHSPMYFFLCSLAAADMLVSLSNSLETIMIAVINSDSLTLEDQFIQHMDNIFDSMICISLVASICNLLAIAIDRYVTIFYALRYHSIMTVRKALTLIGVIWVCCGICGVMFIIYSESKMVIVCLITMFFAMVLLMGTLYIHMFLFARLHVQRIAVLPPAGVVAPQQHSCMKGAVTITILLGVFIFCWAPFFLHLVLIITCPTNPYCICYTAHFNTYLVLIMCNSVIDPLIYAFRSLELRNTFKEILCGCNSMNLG
Sequence of mMC1R (Q01727 whole entry): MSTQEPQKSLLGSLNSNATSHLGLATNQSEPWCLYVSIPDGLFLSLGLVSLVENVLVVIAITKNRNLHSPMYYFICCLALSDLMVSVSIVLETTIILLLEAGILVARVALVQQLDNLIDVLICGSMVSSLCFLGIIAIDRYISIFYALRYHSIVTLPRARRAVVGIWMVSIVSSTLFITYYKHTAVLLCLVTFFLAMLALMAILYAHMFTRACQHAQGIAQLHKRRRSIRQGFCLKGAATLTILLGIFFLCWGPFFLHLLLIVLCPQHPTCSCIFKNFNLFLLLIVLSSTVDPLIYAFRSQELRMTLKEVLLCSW
Sequence of mMC4R (P56450 whole entry): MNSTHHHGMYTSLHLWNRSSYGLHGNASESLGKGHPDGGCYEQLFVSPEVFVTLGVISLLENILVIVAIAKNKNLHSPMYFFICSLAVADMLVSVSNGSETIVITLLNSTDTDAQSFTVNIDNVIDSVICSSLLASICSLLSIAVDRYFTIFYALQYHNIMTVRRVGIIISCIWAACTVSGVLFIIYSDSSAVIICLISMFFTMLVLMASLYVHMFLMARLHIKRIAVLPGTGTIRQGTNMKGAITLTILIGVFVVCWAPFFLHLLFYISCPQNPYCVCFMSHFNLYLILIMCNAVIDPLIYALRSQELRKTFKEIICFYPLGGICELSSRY
Sequence of mMC5R (P41149 whole entry): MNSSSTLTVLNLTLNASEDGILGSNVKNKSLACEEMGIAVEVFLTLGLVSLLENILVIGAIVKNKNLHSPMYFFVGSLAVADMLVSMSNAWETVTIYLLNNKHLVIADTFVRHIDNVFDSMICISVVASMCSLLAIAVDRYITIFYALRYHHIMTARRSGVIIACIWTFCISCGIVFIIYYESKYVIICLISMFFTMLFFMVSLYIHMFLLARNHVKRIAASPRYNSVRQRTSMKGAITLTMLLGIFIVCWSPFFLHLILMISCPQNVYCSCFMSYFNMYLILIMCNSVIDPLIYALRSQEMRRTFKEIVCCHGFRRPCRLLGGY

| SMILES | mMC4R percent maximal stimulatory response (compared to NDP-MSH) (mMC4R) | EC50 (mMC1R) | mMC3R percent maximal stimulatory response (compared to NDP-MSH) (mMC3R) | EC50 (mMC3R) | mMC3R partial agonist efficacy bin (mMC3R) | EC50 (mMC5R) | further results |
| --- | --- | --- | --- | --- | --- | --- | --- |
| CC(C)C[C@@H]1CNC(=N)N1C[C@@H]1CCCN1C[C@H](Cc1ccccc1)N1C[C@@H]([C@H](C)O)N(CC2CCC(C(C)(C)C)CC2)C1=N (stereo partly drawn) [Compound 2718.031] | 55% @ 1 mM | 2300 ± 900 nM | 55% @ 1 mM | – | – | – | fold decreased mMC1R agonist potency (mMC1R): 7 fold; mMC5R percent maximal stimulatory response (compared to NDP-MSH) (mMC5R; [1]): 70% @ 1 mM |
| CC(C)C[C@@H]1CNC(=N)N1C[C@H]1CCCN1C[C@@H](Cc1ccccc1)N1C[C@@H]([C@H](C)O)N(CC2CCC(C(C)(C)C)CC2)C1=N (stereo partly drawn) [Compound 2718.032] | 55% @ 1 mM | 400 ± 60 nM | – | 1500 ± 400 nM | B (B (51–90% receptor activation)) | 600 ± 200 nM | – |
| CC(C)C[C@H]1CNC(=N)N1C[C@@H]1CCCN1C[C@@H](Cc1ccccc1)N1C[C@@H]([C@H](C)O)N(CC2CCC(C(C)(C)C)CC2)C1=N (stereo partly drawn) [Compound 2718.033] | 60% @ 1 mM | 380 ± 40 nM | – | 3800 ± 600 nM | B (B (51–90% receptor activation)) | 900 ± 300 nM | – |
| CC(C)C[C@H]1CNC(=N)N1C[C@H]1CCCN1C[C@H](Cc1ccccc1)N1C[C@H]([C@@H](C)O)N(CC2CCC(C(C)(C)C)CC2)C1=N (stereo partly drawn) [Compound 2718.034] | 55% @ 1 mM | – | 50% @ 1 mM | – | – | 3000 ± 1000 nM | mMC1R percent maximal stimulatory response (compared to NDP-MSH) (mMC1R; [1]): 75% @ 1 mM; fold decreased mMC5R agonist potency (mMC5R; relative to 2718.001): 12 fold |
| CC(C)C[C@@H]1CNC(=N)N1C[C@@H]1CCCN1C[C@H](Cc1ccccc1)N1C[C@H]([C@@H](C)O)N(CC2CCC(C(C)(C)C)CC2)C1=N (stereo partly drawn) [Compound 2718.035] | 55% @ 1 mM | 3700 ± 700 nM | 55% @ 1 mM | – | – | 23000 nM | fold decreased mMC1R agonist potency (mMC1R): 12 fold; mMC5R partial agonist efficacy bin (mMC5R): B (B (51–90% receptor activation)) |
| CC(C)C[C@@H]1CNC(=N)N1C[C@H]1CCCN1C[C@@H](Cc1ccccc1)N1C[C@H]([C@@H](C)O)N(CC2CCC(C(C)(C)C)CC2)C1=N (stereo partly drawn) [Compound 2718.036] | 55% @ 1 mM | 900 ± 300 nM | 50% @ 1 mM | – | – | 5800 ± 900 nM | mMC5R partial agonist efficacy bin (mMC5R): B (B (51–90% receptor activation)) |
| CC(C)C[C@@H]1CNC(=N)N1C[C@H]1CCCN1C[C@@H](CC1CCCCC1)N1C[C@@H]([C@H](C)O)N(CC2CCC(C(C)(C)C)CC2)C1=N (stereo partly drawn) [Compound 2718.047] | – | 870 ± 70 nM | – | – | – | 450 ± 30 nM | EC50 (mMC4R): 3100 ± 200 nM; mMC4R partial agonist efficacy bin (mMC4R; sigmoidal curve, efficacy <90% of NDP-MSH): B (B (51–90% receptor activation)) |
| CC(C)C[C@H]1CNC(=N)N1C[C@@H]1CCCN1C[C@@H](CC1CCCCC1)N1C[C@@H]([C@H](C)O)N(CC2CCC(C(C)(C)C)CC2)C1=N (stereo partly drawn) [Compound 2718.048] | – | 390 ± 30 nM | – | 2900 ± 200 nM | B (B (51–90% receptor activation)) | 650 ± 80 nM | – |
| CC(C)C[C@H]1CNC(=N)N1C[C@H]1CCCN1C[C@H](CC1CCCCC1)N1C[C@H]([C@@H](C)O)N(CC2CCC(C(C)(C)C)CC2)C1=N (stereo partly drawn) [Compound 2718.049] | – | 8000 ± 2000 nM | – | – | – | 2800 ± 100 nM | mMC1R partial agonist efficacy bin (mMC1R): B (B (51–90% receptor activation)); fold decreased mMC5R agonist potency (mMC5R; relative to 2718.002): 10 fold |
| CC(C)CC1CNC(=N)N1CC1CCCN1CC(Cc1ccc2ccccc2c1)N1CC(C(C)O)N(CC2CCC(C(C)(C)C)CC2)C1=N (stereo not drawn) [Compound 2718.055] | – | 1000 ± 200 nM | – | 7000 ± 3000 nM | B (B (51–90% receptor activation)) | 8000 ± 2000 nM | – |
| CC(C)CC1CNC(=N)N1CC1CCCN1CC(Cc1c[nH]c2ccccc12)N1CC(C(C)O)N(CC2CCC(C(C)(C)C)CC2)C1=N (stereo not drawn) [Compound 2718.056] | – | 6000 ± 3000 nM | – | – | – | 14000 nM | mMC1R partial agonist efficacy bin (mMC1R): B (B (51–90% receptor activation)); fold decreased mMC5R agonist potency (mMC5R; relative to 2718.002): 50 fold |
| CC(C)CC1CNC(=N)N1CC1CCCN1CC(Cc1ccc(O)cc1)N1CC(C(C)O)N(CC2CCC(C(C)(C)C)CC2)C1=N (stereo not drawn) [Compound 2718.057] | – | 500 ± 100 nM | – | 11000 nM | B (B (51–90% receptor activation)) | 6000 ± 2000 nM | mMC5R partial agonist efficacy bin (mMC5R): B (B (51–90% receptor activation)) |
| CC(C)CC1CNC(=N)N1CC1CCCN1CC(C1CCCCC1)N1CC(C(C)O)N(CC2CCC(C(C)(C)C)CC2)C1=N (stereo not drawn) [Compound 2718.059] | – | – | – | 11000 nM | A (A (20–50% receptor activation)) | 6000 ± 1000 nM | fold decreased mMC5R agonist potency (mMC5R; relative to 2718.002): 20 fold |
